Data as given in patent US10165772B2, “Methods and compounds for increasing red blood cell survival” (priority 2008, dated 2019).

Experiments:
Assay type in all cases: cell-based
[1] = test system: human red blood cell (RBC); test: Human RBC survival in vitro in RPMI 1640, viable/dead cells by flow cytometry (FSC/SSC); settings: for protecting effect on RBCs (survival versus vehicle control): 100 μM, RPMI 1640; for RBC survival as compared to RBCs cultured in the presence of buffer only: 7 days at 37° C., 1, 10, 100 μM tested (FIG. 13)
Description: RBCs were incubated in vitro at 37° C., and cells were analyzed by flow cytometry for assessment of the relative proportions of dead and viable cells. Forward scatter (FSC)/side scatter (SSC) dot plots of RBCs incubated in the presence or absence of 5-HT (100 μM) are shown in (A) to (E) for the indicated time points. Two main regions of analysis are set, R1 (left box) and R2 (right box), corresponding to dead and viable RBCs, respectively. The proportion of viable cells remaining at each time-point is indicated next to the R2 region (upper right in the dot plots). (F) Typical concentration-dependent effects of 5-HT (0-100 μM) on RBCs incubated for different periods of time;
RBCs were incubated for various lengths of time in the RPMI 1640 medium at 37° C. (A), at room temperature (21 to 23° C.) (B), or at 4° C. (C). 5-HT (100 μM, black circles) or vehicle control (white circles) was added before incubation at Day 0, and cell viability was assessed by flow cytometry at several times as indicated;
RBCs were incubated for 7 days at 37° C. in the presence or absence of different concentrations of the indicated indole compounds (white bars =1 μM; grey bars=10 μM; black bars:100 μM). As a control, RBCs were incubated in the presence of the appropriate buffer (without the compounds). RBCs survival in the presence of a given compound is expressed as the percentage of survival relative to the control.
Red blood cells isolation. Venous blood was drawn from healthy volunteers, and RBCs were isolated by centrifugation at 800 rpm to remove platelet-rich plasma, and white blood cells. The resulting pellet of RBCs was washed three times in NaCl 0.9% by centrifugation at 3000 rpm. RBCs were incubated at 37° C., 5% CO2 in 24-well microplates at a concentration of 1x10^6 cells/ml in RPMI 1640 medium without phenol red containing HEPES/NaOH (pH 7.4) and penicillin (100 U/ml)/streptomycin ([…]).
(§1) Cell culture. Drugs [serotonin (Catalog No. H9525), melatonin (Catalog No. M5250), pindolol (Catalog No. P0778) and indomethacin (Catalog No. 18280)] were all purchased from Sigma-Aldrich. They were added at the indicated concentrations at the beginning of cell incubation (Day 0). Cells were harvested at specific time-points and analyzed by flow cytometry (FACScan™, Becton Dickinson) according to forward and side scatters (FSC and SSC, respectively). FSC is proportional to cell size, while SSC is proportional to cell complexity, which may reflect hemoglobin content of RBCs. The relative proportions of viable and dead RBCs were calculated by setting appropriate regions on the dot plots. In some experiments, RBCs were sorted according to FSC and SSC. Cell density was checked routinely by inverted light microscopy, and cell morphology was assessed by May Grünwald-Giemsa staining followed by light microscopy.

human RBCs [2] = test: RBC density and morphology by May Grünwald-Giemsa staining and light microscopy
Description: (C). Cells were incubated in the presence or absence of 5-HT. The density of RBC suspension and their morphology were assessed by May Grünwald-Giemsa staining;
as §1
To evaluate the morphology of the two populations of RBCs, these cells were sorted by flow cytometry according to their FSC/SSC characteristics, and stained by the May Grünwald-Giemsa method. […] Cells with intermediate amounts of hemoglobin (between normochromic and hypochromic) were also present in the R2 region (FIG. 2, upper right panel). […] At day 7, in the absence of 5-HT, fewer cells were present, and the majority of these cells were hypochromic with cytoplasmic inclusions (FIG. 3B, left panels).

human RBCs [3] = test: Survival of human RBCs cultured in AS-3 additive solution, flow cytometry; settings: 100 μM
Description: AS-3 is an additive solution commonly used for storage of RBCs. RBCs were incubated in home-made (A) and commercially available (B) AS-3 solution (Haemonetics, Catalog No. 0460a-00) for various lengths of time at 4° C. in the absence (white circles) or presence (100 μM, black circles) of 5-HT, and cell viability was assessed by flow cytometry at several times as indicated. The home-made AS-3 was prepared in sterile water as follows: Sodium chloride (NaCl, 2.35 g), D-Glucose (Dextrose, 5.5 g), Adenine (0.15 g), Citric Acid (0.21 g), Sodium Phosphate dibasic (Na2HPO4 anhydrous, 1.380 g) were dissolved in 500 ml of sterile water. The pH of the solution was adjusted at 7.39;
as §1, with “They were added at the indicated concentrations at the beginning of cell incubation (Day 0).” left out, “FSC is proportional to cell size, while SSC is proportional to cell complexity, which may reflect hemoglobin content of RBCs.” left out, “In some experiments, RBCs were sorted according to FSC and SSC.” left out
The effect of 5-HT on the survival of human RBCs cultured in AS-3 solution was assessed. […]

mouse RBCs = test: Survival of mouse RBCs cultured at 37° C., flow cytometry; settings: day 1 to day 7, 0-100 μM
Description: Mouse RBCs were cultured at 37° C. for the indicated periods of time, in the presence of increasing concentrations of 5-HT (0-100 μM). Cell viability was assessed by flow cytometry at day 1 (A), day 2 (B), day 3 (C), day 5 (D) and day 7 (E), and the percentage of viable cells (% of cells in R2) is indicated;
as §1, with “microscopy. […]” for “microscopy.”

## NCCc1c[nH]c2ccc(O)cc12 [5-HT, serotonin]
[1]; 0-100 μM tested, 37° C., FIG. 1F
  concentration giving optimal effect on RBC viability: 100 µM
[1]; 4° C.
  protecting effect on RBCs (survival versus vehicle control): is observed
[1]; 37° C.
  protecting effect on RBCs (survival versus vehicle control): is observed
[1]; all time-points (day 0 to 21), 37° C., 5-HT 100 μM
  percentage of viable RBCs as compared to controls without 5-HT: higher
[1]; room temperature (21-23° C.)
  protecting effect on RBCs (survival versus vehicle control): is observed
Human RBCs [2]; 91 days at 4° C.
  RBC morphology (normochromic / hypochromic): normochromic red blood cells are observed
Human RBCs [2]; day 7, 37° C.
  RBC morphology (normochromic / hypochromic): the majority of these cells were normochromic
Human RBCs [2]; day 7, 37° C., versus absence of 5-HT
  number of cells remaining, as judged by cell density: a greater number of cells remained
Human RBCs [3]; commercially available AS-3, 4° C.
  survival of RBCs versus absence of 5-HT: increases the survival
Human RBCs [3]; home-made AS-3, 4° C.
  survival of RBCs versus absence of 5-HT: increases the survival
Mouse RBCs
  proportion of viable mouse RBCs versus 5-HT-free cultures: higher

## COc1ccc2c(c1)c(CC(=O)O)c(C)n2C(=O)c1ccc(Cl)cc1 [indomethacin]
[1]
  RBC survival as compared to RBCs cultured in the presence of buffer only: increased survival

## CC(C)NCC(O)COc1cccc2[nH]ccc12 (centres unmarked) [pindolol]
[1]
  RBC survival as compared to RBCs cultured in the presence of buffer only: increased survival

## COc1ccc2[nH]cc(CCNC(C)=O)c2c1 [melatonin]
[1]
  RBC survival as compared to RBCs cultured in the presence of buffer only: increased survival
